Where “and” joins values, the source holds several entries; their conditions need not be identical. Identical values can stand only once.
Species on record: Rattus norvegicus
Experiment: DrugMatrix - Regimen: Daily Repeat
Type: toxicity, organism-based, Sprague-Dawley
Design: regimen Daily Repeat, gender Male, age 6-8 weeks
Details: in vivo, ip, route intraperitoneal, vehicle 100 % SALINE; for ABSOLUTE BASOPHIL / ABSOLUTE EOSINOPHIL / ABSOLUTE LYMPHOCYTE / ABSOLUTE MONOCYTE / ABSOLUTE SEGMENTED NEUTROPHIL / BASOPHIL / EOSINOPHIL / ERYTHROCYTE COUNT / HEMATOCRIT / HEMOGLOBIN / LEUKOCYTE COUNT / LYMPHOCYTE / MEAN CORPUSCULAR HEMOGLOBIN / MEAN CORPUSCULAR HEMOGLOBIN CONCENTRATION / MEAN CORPUSCULAR VOLUME / MONOCYTE / NEUTROPHIL / PLATELET COUNT: tissue Blood; for ALANINE AMINOTRANSFERASE / ALBUMIN / ALKALINE PHOSPHATASE / ASPARTATE AMINOTRANSFERASE / BLOOD UREA NITROGEN / CARBON DIOXIDE / CHOLESTEROL / CREATINE PHOSPHOKINASE / CREATININE / GLUCOSE / LACTATE DEHYDROGENASE / LIPASE / PHOSPHORUS / POTASSIUM / SODIUM / TOTAL BILIRUBIN / TOTAL PROTEIN / URIC ACID / CHLORIDE: tissue Plasma
[1] = 0 mg/kg, 120 h, dose level Control, time 5 day
[2] = 0 mg/kg, […], dose level Control, time 14 day
[3] = 0 mg/kg, […], dose level Control, time 28 day
[4] = 40 mg/kg, 120 h, dose level High, time 5 day

GENTAMICIN
ABSOLUTE BASOPHIL [1]: 32 cells/µL
ABSOLUTE EOSINOPHIL [1]: 110 cells/µL
ABSOLUTE LYMPHOCYTE [1]: 6630 cells/µL
ABSOLUTE MONOCYTE [1]: 140 cells/µL
ABSOLUTE SEGMENTED NEUTROPHIL [1]: 1170 cells/µL
BASOPHIL [1]: 0.38% and 0.35%
EOSINOPHIL [1]: 1.28% and 0.62%
ERYTHROCYTE COUNT [1]: 7.45 x10E6/uL and 7.26 x10E6/uL
HEMATOCRIT [1]: 45.74% and 47.97%
HEMOGLOBIN [1]: 14.72 G/DL and 15.38 G/DL
LEUKOCYTE COUNT [1]: 8.11 x10E3/uL and 8.68 x10E3/uL
LYMPHOCYTE [1]: 81.3% and 86.77%
MEAN CORPUSCULAR HEMOGLOBIN [1]: 19.76 pg and 21.18 pg
MEAN CORPUSCULAR HEMOGLOBIN CONCENTRATION [1]: 32.16 G/DL and 32.05 G/DL
MEAN CORPUSCULAR VOLUME [1]: 61.38 fL and 66.15 fL
MONOCYTE [1]: 1.76% and 1.57%
NEUTROPHIL [1]: 14.9% and 9.53%
PLATELET COUNT [1]: 1322.4 x10E3/uL and 1786 x10E3/uL
ALANINE AMINOTRANSFERASE [1]: 25.8 u/L and 20.5 u/L
ALBUMIN [1]: 3.64 G/DL and 4.35 G/DL
ALKALINE PHOSPHATASE [1]: 300 u/L
ASPARTATE AMINOTRANSFERASE [1]: 81.4 u/L and 86.75 u/L
BLOOD UREA NITROGEN [1]: 14.4 mg/dL and 17 mg/dL
CARBON DIOXIDE [1]: 29 mmol/L
CHOLESTEROL [1]: 69.2 mg/dL and 51.25 mg/dL
CREATINE PHOSPHOKINASE [1]: 303.2 u/L and 384.75 u/L
CREATININE [1]: 0.56 mg/dL and 0.47 mg/dL
GLUCOSE [1]: 125.4 mg/dL and 128.75 mg/dL
LACTATE DEHYDROGENASE [1]: 105.4 u/L and 145 u/L
LIPASE [1]: 22.4 u/L and 13.25 u/L
PHOSPHORUS [1]: 11.8 mg/dL
POTASSIUM [1]: 5.52 MEQ/L and 6.58 MEQ/L
SODIUM [1]: 147 MEQ/L and 151 MEQ/L
TOTAL BILIRUBIN [1]: 0.2 mg/dL and 0.33 mg/dL
TOTAL PROTEIN [1]: 6.1 G/DL and 6.53 G/DL
URIC ACID [1]: 1.06 mg/dL and 1.95 mg/dL
ABSOLUTE BASOPHIL [2]: 130 cells/µL
ABSOLUTE EOSINOPHIL [2]: 140 cells/µL
ABSOLUTE LYMPHOCYTE [2]: 13500 cells/µL
ABSOLUTE MONOCYTE [2]: 400 cells/µL
ABSOLUTE SEGMENTED NEUTROPHIL [2]: 2330 cells/µL
HEMATOCRIT [2]: 45.98%
HEMOGLOBIN [2]: 15.17 G/DL
MEAN CORPUSCULAR VOLUME [2]: 59.4 fL
NEUTROPHIL [2]: 14.14%
ABSOLUTE BASOPHIL [3]: 91 cells/µL
ABSOLUTE EOSINOPHIL [3]: 110 cells/µL
ABSOLUTE LYMPHOCYTE [3]: 9910 cells/µL
ABSOLUTE MONOCYTE [3]: 210 cells/µL
ABSOLUTE SEGMENTED NEUTROPHIL [3]: 1560 cells/µL
BASOPHIL [3]: 0.77%
EOSINOPHIL [3]: 0.92%
ERYTHROCYTE COUNT [3]: 8.21 x10E6/uL
HEMATOCRIT [3]: 47.53%
HEMOGLOBIN [3]: 15.65 G/DL
LEUKOCYTE COUNT [3]: 11.91 x10E3/uL
LYMPHOCYTE [3]: 83.34%
MEAN CORPUSCULAR HEMOGLOBIN [3]: 19.07 pg
MEAN CORPUSCULAR HEMOGLOBIN CONCENTRATION [3]: 32.93 G/DL
MEAN CORPUSCULAR VOLUME [3]: 57.9 fL
MONOCYTE [3]: 1.68%
NEUTROPHIL [3]: 12.97%
PLATELET COUNT [3]: 1323.8 x10E3/uL
ALBUMIN [2]: 3.66 G/DL
CARBON DIOXIDE [2]: 25 mmol/L
CHLORIDE [2]: 107 MEQ/L
CREATINE PHOSPHOKINASE [2]: 410.25 u/L
SODIUM [2]: 149.2 MEQ/L
URIC ACID [2]: 0.94 mg/dL
ALANINE AMINOTRANSFERASE [3]: 30 u/L
ALBUMIN [3]: 3.71 G/DL
ALKALINE PHOSPHATASE [3]: 186.8 u/L
ASPARTATE AMINOTRANSFERASE [3]: 78.2 u/L
BLOOD UREA NITROGEN [3]: 14.2 mg/dL
CHOLESTEROL [3]: 44.9 mg/dL
CREATINE PHOSPHOKINASE [3]: 334.3 u/L
CREATININE [3]: 0.6 mg/dL
GLUCOSE [3]: 147.2 mg/dL
LACTATE DEHYDROGENASE [3]: 123.1 u/L
LIPASE [3]: 9.6 u/L
PHOSPHORUS [3]: 10.01 mg/dL
POTASSIUM [3]: 6.57 MEQ/L
SODIUM [3]: 149.5 MEQ/L
TOTAL BILIRUBIN [3]: 0.21 mg/dL
TOTAL PROTEIN [3]: 6.66 G/DL
URIC ACID [3]: 1.26 mg/dL
ABSOLUTE BASOPHIL [4]: 80 cells/µL
ABSOLUTE EOSINOPHIL [4]: 74 cells/µL
ABSOLUTE LYMPHOCYTE [4]: 8100 cells/µL
ABSOLUTE MONOCYTE [4]: 240 cells/µL
ABSOLUTE SEGMENTED NEUTROPHIL [4]: 1450 cells/µL
BASOPHIL [4]: 0.76% and 0.38%
EOSINOPHIL [4]: 0.78% and 0.9%
ERYTHROCYTE COUNT [4]: 6.83 x10E6/uL and 7.91 x10E6/uL
HEMATOCRIT [4]: 41.68% and 49.95%
HEMOGLOBIN [4]: 15.98 G/DL
LEUKOCYTE COUNT [4]: 10.02 x10E3/uL and 8.78 x10E3/uL
LYMPHOCYTE [4]: 80.04% and 84.55%
MEAN CORPUSCULAR HEMOGLOBIN [4]: 20.3 pg and 20.2 pg
MEAN CORPUSCULAR HEMOGLOBIN CONCENTRATION [4]: 33.3 G/DL and 31.98 G/DL
MEAN CORPUSCULAR VOLUME [4]: 61 fL
MONOCYTE [4]: 2.58% and 2.52%
NEUTROPHIL [4]: 15.12% and 10.23%
PLATELET COUNT [4]: 1275.4 x10E3/uL and 1549.75 x10E3/uL
ALANINE AMINOTRANSFERASE [4]: 28.6 u/L and 25 u/L
ALBUMIN [4]: 3.36 G/DL and 4.35 G/DL
ALKALINE PHOSPHATASE [4]: 214.2 u/L and 307.5 u/L
ASPARTATE AMINOTRANSFERASE [4]: 87.2 u/L and 90.25 u/L
BLOOD UREA NITROGEN [4]: 15 mg/dL and 15.25 mg/dL
CARBON DIOXIDE [4]: 25.75 mmol/L
CHLORIDE [4]: 107.4 MEQ/L
CHOLESTEROL [4]: 60.8 mg/dL and 65.25 mg/dL
CREATINE PHOSPHOKINASE [4]: 313.5 u/L and 416.75 u/L
CREATININE [4]: 0.44 mg/dL and 0.45 mg/dL
GLUCOSE [4]: 128 mg/dL and 118.5 mg/dL
LACTATE DEHYDROGENASE [4]: 133.8 u/L and 153 u/L
